Assay results as given in ChEMBL document CHEMBL1759953, “Antitumor agents 287. Substituted 4-amino-2H-pyran-2-one (APO) analogs reveal a new scaffold from neo-tanshinlactone with in vitro anticancer activity” (2011).

Key:
Type in all cases: functional
KB = experiment: Cytotoxicity against human KB cells after 72 hrs by MTT assay; conditions: read-out: ED50 (the source's name)
DU-145 = experiment: Cytotoxicity against human DU145 cells after 72 hrs by MTT assay; conditions: DU-145, 72 h, read-out: ED50 (the source's name)
A549 = experiment: Cytotoxicity against human A549 cells after 72 hrs by MTT assay; conditions: A549, 72 h, read-out: ED50 (the source's name)
[1] = Cytotoxicity against human KBVIN cells after 72 hrs by MTT assay; conditions: read-out: ED50 (the source's name)
SK-BR-3 = experiment: Cytotoxicity against human SKBR3 cells after 72 hrs by MTT assay; conditions: SK-BR-3, 72 h, read-out: ED50 (the source's name)

Row | SMILES | EC50 (KB) | EC50 (DU-145) | EC50 (A549) | EC50 [1] | EC50 (SK-BR-3)
1 | Nc1cc(=O)oc2c1ccc1ccccc12 | 170 nM | 110 nM | 110 nM | 130 nM | 130 nM
2 | O=c1cc(NC2CCCCC2)cc(-c2ccccc2)o1 | 16000 nM | 7470 nM | 9690 nM | 9150 nM | 10900 nM
3 | O=c1cc(NC2CCCCC2)cc(/C=C/c2ccccc2)o1 | 2020 nM | 1230 nM | 1250 nM | 1240 nM | 1530 nM
4 | COc1ccc(Nc2cc(C)oc(=O)c2)cc1 | > 30000 nM | > 30000 nM | > 30000 nM | > 30000 nM | > 30000 nM
5 | COc1ccc(Nc2cc(C(C)C)oc(=O)c2)cc1 | > 30000 nM | > 30000 nM | > 30000 nM | > 30000 nM | > 30000 nM
6 | CCCCCc1cc(Nc2ccc(OC)cc2)cc(=O)o1 | 10100 nM | 5940 nM | 4420 nM | 4840 nM | 4930 nM
7 | COc1ccc(Nc2cc(C3CCCC3)oc(=O)c2)cc1 | 8380 nM | 5420 nM | 5420 nM | 4980 nM | 4730 nM
8 | COc1ccc(Nc2cc(C3CCCCC3)oc(=O)c2)cc1 | 8320 nM | 8610 nM | 4620 nM | 4390 nM | 5290 nM
9 | COc1ccc(Nc2cc(-c3ccccc3)oc(=O)c2)cc1 | 160 nM | 120 nM | 93 nM | 98 nM | 79 nM
10 | COc1ccc(Nc2cc(/C=C/c3ccccc3)oc(=O)c2)cc1 | 150 nM | 110 nM | 110 nM | 100 nM | 83 nM
11 | COc1ccc(Nc2cc(Cc3ccccc3)oc(=O)c2)cc1 | – | 1600 nM | 1620 nM | 1300 nM | 1340 nM
12 | COc1ccc(Nc2cc(-c3ccco3)oc(=O)c2)cc1 | 2660 nM | 1950 nM | 1910 nM | 1460 nM | 1760 nM
13 | COc1ccc(Nc2cc(-c3ccc4ccccc4c3)oc(=O)c2)cc1 | 180 nM | 150 nM | 150 nM | 130 nM | 130 nM
14 | O=c1cc(NC2CC2)cc(-c2ccccc2)o1 | > 30000 nM | > 30000 nM | > 30000 nM | > 30000 nM | > 30000 nM
15 | O=c1cc(N2CCCCC2)cc(-c2ccccc2)o1 | > 30000 nM | > 30000 nM | > 30000 nM | > 30000 nM | > 30000 nM
16 | O=c1cc(Nc2ccccc2)cc(-c2ccccc2)o1 | 130 nM | 98 nM | 120 nM | 150 nM | 130 nM
17 | Cc1ccc(Nc2cc(-c3ccccc3)oc(=O)c2)cc1 | 64 nM | 73 nM | 67 nM | 59 nM | 90 nM
18 | O=c1cc(Nc2ccc(Br)cc2)cc(-c2ccccc2)o1 | 320 nM | 340 nM | 310 nM | 240 nM | 400 nM
19 | COc1ccccc1Nc1cc(-c2ccccc2)oc(=O)c1 | 350 nM | 370 nM | – | 490 nM | 540 nM
20 | COc1cccc(Nc2cc(-c3ccccc3)oc(=O)c2)c1 | 490 nM | 660 nM | 630 nM | 550 nM | 740 nM
